Columns and labels:
[1] = biological target: T1, AChE (acetylcholinesterase) (Electrophorus electricus, UniProt O42275); experiment: AChE inhibition, colorimetric cholinesterase assay; format: biochemical, electric eel; settings: mean ± S.D., n = 3
T1 construct: purchased Sigma Aldrich S.r.l., Milan, Italy Type-VI-S (catalogue number not given)

[2] = Cupric reducing antioxidant capacity (CUPRAC); settings: mean ± S.D., n = 3
Description: For the cupric ion reducing activity (CUPRAC) activity assay, sample solution was added to premixed reaction mixture containing CuCl2 (1 mL, 10 mM), neocuproine (1 mL, 7.5 mM) and NH4Ac buffer (1 mL, 1 M, pH 7.0). Similarly, a blank was prepared by adding sample solution (0.5 mL) to premixed reaction mixture […] without CuCl2. Then, the sample and blank absorbances were read at 450 nm after a 30 min incubation at room temperature. The absorbance of the blank was subtracted from that of the sample. CUPRAC activity was expressed as IC50 values.

[3] = system: CTX-TNA2 astrocyte cell line; experiment: ROS production by flow cytometry; format: cell-based, rat; settings: challenged with 300 µM H2O2; 1000 nM CBD, 1 nM CBG; 24 and 48 h
Description: The CTX-TNA2 rat astrocytes were purchased from the European Collection of Cell Cultures (ECACC), Sigma-Aldrich, Milan, Italy, and cultured as already indicated. Cells were grown in Dulbecco’s Modified Eagle Medium supplemented with 10% of FBS and penicillin–streptomycin (100 µgmL^−1) (all from EuroClone SpA Life-Sciences-Division, Milan, Italy) and maintained in a humified atmosphere of 5% CO2 at 37 °C. Cells were subcultivated at a ratio of 1.2 to 1.8 and the medium was changed every 3 days. CTX-TNA2 astrocytes were plated in 25 or 75 cm^2 flasks, according to experimental needing and cells between the eight and the 15 passage were used.
When indicated, the cells were treated with H2O2 300 µM for three hours and different concentrations of CBD (1–1000 nM) and CBG (1–1000 nM). […]
Reactive oxygen species (ROS) production was determined as already reported by monitoring by flow cytometry the increase in green fluorescence after labeling the cells (5 × 10^5) with 5 μmolL^−1 of 5-(and-6)-chloromethyl-2′,7′-dichlorodihydrofluorescein diacetate, acetyl ester (CM-H2DCFDA, Molecular Probes, Invitrogen, Life-Sciences-Division, Milano, Italy) for 40 min followed by 20 min of recovery at 37 °C. The increase in green fluorescence, indicating the production of ROS, was detected by a Cytoflex flow cytometer with an FL1 detector in a log mode (Beckmann Coulter, FL, USA). […]

[4] = system: isolated rat prefrontal cortex, nitrite; experiment: H2O2-induced nitrite level in isolated cortexes (Griess assay); settings: hydrogen peroxide 300 µM; for inhibition of H2O2-induced increase in nitrite level: 1–1000 nM
Description: Sprague–Dawley rats (200–250 g) were sacrificed by CO2 inhalation and isolated prefrontal cortex specimens were immediately explanted and exposed to 300 µM H2O2 and different concentrations of CBD (1–1000 nM) and CBG (1–1000 nM) for one hour, at 37 °C. The nitrite concentration in the resuspension buffer was determined by colorimetric Griess assay. Specifically, cortex specimens were homogenized for 2 min with Potter–Elvehjem homogenizer in 2 mL DMEM buffer. The homogenate was centrifuged at 4500 g for 10 min and nitrite production was determined in the supernatant fraction by mixing 50 µL of the assay buffer with 50 µL of Griess reagent (1.5% sulfanilamide in 1M HCl plus 0.15% N-(1-naphthyl) ethylenediamine dihydrochloride in distilled water, v/v). After 10 min incubation at room temperature, the absorbance at 540 nm was determined and nitrite concentrations were calculated from a sodium nitrite standard curve. All measurements were performed in triplicate.

[5] = system: isolated rat cortexes, 3-HK; experiment: K+ 60 mM neurotoxicity paradigm, 3-HK level; settings: for effect on K+ 60 mM-induced increase in 3-HK level: CBD 1000 nM, CBG 1 nM
Description: Sprague–Dawley rats (200–250 g) were sacrificed by CO2 inhalation (Italian Health Ministry authorization N. F4738.N.XTQ, delivered on 11th November 2018) and isolated prefrontal cortex specimens were immediately explanted and incubated in thermostatic shaking bath at 37 °C for 1 h (incubation period), in Krebs–Ringer buffer at the following K^+ concentrations:
Cortexes were stimulated with CBD (1000 nM) and […]. Afterwards, specimens were homogenized in perchloric acid solution (0.05 M) for the extraction and quantification of nitrites, via the aforementioned colorimetric Griess assay, and serotonin (5-HT), 5-hydroxyindoleacetic (5HIIA),3-hydroxykinurenine (3-HK) and kinurenic acid (KA) (ng/mg wet tissue) via high performance liquid chromatography analysis. Additionally, an untargeted proteomic analysis was carried out on the cortex homogenate. The analytical protocols for 5-HT, 5HIIA, 3-HK, KA and protein level determinations are described below. The analyses were conducted in triplicate and in independent facilities with blind modality.
Tissue 3-HK, 5-HT and 5HIIA levels were analyzed through an HPLC apparatus consisting of a Jasco (Tokyo, Japan) PU-2080 chromatographic pump and an ESA (Chelmsford, MA, USA) Coulochem III coulometric detector, equipped with a microdialysis cell (ESA-5014b), a porous graphite working electrode and a solid state palladium reference electrode. The analytical conditions for identification and quantification were selected according to previous studies. Specifically, the analytical cell was set at −0.150 V for detector 1 and at +0.300 V for detector 2, with a range of 100 nA. The chromatograms were monitored at the analytical detector 2. […] Sample concentrations were calculated by linear regression curve (y = bx + m) obtained with standard. Neither internal nor external standards were necessary for analyte quantification in the cortex homogenate, and all tests performed for method validation and yielded results in accordance with limits indicated in official guidelines for applicability in laboratory trials. […]

T1 sequence (O42275 24-633): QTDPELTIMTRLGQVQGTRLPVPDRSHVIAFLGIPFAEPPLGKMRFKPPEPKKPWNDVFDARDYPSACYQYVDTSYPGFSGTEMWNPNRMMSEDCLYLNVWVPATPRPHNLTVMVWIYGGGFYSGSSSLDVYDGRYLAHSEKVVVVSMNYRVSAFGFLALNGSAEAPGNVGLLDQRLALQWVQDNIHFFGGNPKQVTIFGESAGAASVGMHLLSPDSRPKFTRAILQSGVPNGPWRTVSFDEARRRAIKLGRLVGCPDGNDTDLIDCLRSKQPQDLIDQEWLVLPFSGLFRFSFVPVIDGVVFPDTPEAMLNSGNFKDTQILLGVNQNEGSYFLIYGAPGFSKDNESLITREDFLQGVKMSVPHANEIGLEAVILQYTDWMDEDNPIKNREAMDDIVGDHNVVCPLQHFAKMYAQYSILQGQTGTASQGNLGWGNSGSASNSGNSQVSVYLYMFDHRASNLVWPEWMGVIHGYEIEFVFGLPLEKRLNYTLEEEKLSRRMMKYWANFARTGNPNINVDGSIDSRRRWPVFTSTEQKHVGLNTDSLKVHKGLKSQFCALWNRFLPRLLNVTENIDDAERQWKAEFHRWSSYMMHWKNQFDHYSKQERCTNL

Row | Structure (SMILES) | IC50 [1] | IC50 [2] | ROS production [3] | inhibition of H2O2-induced increase in nitrite level [4] | effect on K+ 60 mM-induced increase in 3-HK level [5] | concentration of maximal inhibition of nitrite production ([4]; tested 1–1000 nM) | 3-HK level ([5]; basal conditions only)
1 | C=C(C)[C@@H]1CCC(C)=C[C@H]1c1c(O)cc(CCCCC)cc1O [CBD, Cannabidiol] | 1040 ± 20 µM | 940 ± 10 µM | reduction in ROS production | inhibit such an increase at all the tested concentrations | successful in blunting | – | –
2 | CCCCCc1cc(O)c(C/C=C(\C)CCC=C(C)C)c(O)c1 [CBG, cannabigerol] | 1150 ± 30 µM | 590 ± 10 µM | reduction in ROS production | significant at the two lowest tested concentrations only | completely ineffective | 1 nM | reduce 3-HK

— paper PMC7279038, “Antioxidant and Neuroprotective Effects Induced by Cannabidiol and Cannabigerol in Rat CTX-TNA2 Astrocytes and Isolated Cortexes” (International Journal of Molecular Sciences, 2020)
